Reference: patent US9156796B2, “Benzoimidazole-carboxylic acid amide derivatives as APJ receptor modulators” (SANOFI, priority 2013, dated 2015)

molecular target: T1, human apelin receptor (Homo sapiens, UniProt P35414); experiment: Determination of agonism on the human apelin receptor by a calcium fluorescence assay (FLIPR); type: cell-based; conditions: EC50 (APJ agonism), HEK293 cells stably transfected with human apelin receptor and Giaq protein, Fluo-4 calcium fluorescence
T1 construct: expressed in transfected cells
T1 sequence (P35414 1-380): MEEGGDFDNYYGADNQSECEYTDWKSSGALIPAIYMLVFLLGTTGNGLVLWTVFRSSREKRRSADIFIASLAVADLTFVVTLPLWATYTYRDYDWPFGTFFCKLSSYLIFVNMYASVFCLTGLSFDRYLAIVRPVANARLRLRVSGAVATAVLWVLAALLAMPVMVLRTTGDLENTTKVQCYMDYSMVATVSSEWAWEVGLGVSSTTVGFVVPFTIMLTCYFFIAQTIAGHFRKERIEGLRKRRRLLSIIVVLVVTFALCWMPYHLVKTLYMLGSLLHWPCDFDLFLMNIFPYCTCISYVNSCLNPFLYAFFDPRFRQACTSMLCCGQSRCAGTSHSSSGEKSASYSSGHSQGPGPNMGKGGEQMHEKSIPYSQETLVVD
Summary of the method: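 HEK293 cells stably co-expressing human apelin receptor and promiscuous Giaq, loaded 1 h at 37 °C with Fluo-4 (4 μM) in probenecid-containing Hepes buffer, pH 7.4. Compounds, at least 7 concentrations in triplicate, added in FLIPR Tetra; peak calcium fluorescence normalized to 1 μM apelin-13 as 100% to derive EC50.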

`CCC(CC)n1c(Cc2cccs2)nc2cc(C(=O)NC(CO)C(C)C)ccc21` (stereo not shown) [Example 189, 1-(1-Ethyl-propyl)-2-thiophen-2-ylmethyl-1H-benzoimidazole-5-carboxylic acid (1-hydroxymethyl-2-methyl-propyl)-amide] gave an EC50 of 12200 nM.

same assay, conditions: HEK293 cells stably transfected with human apelin receptor and Giaq protein, Fluo-4 calcium fluorescence, read-out: EC50 (APJ agonism)

Point of comparison: `CCC(CC)n1c(Cc2cccs2)nc2cc(C(=O)NC(CC(C)C)C(N)=O)ccc21` (stereo not shown) [Example 171, 1-(1-Ethyl-propyl)-2-thiophen-2-ylmethyl-1H-benzoimidazole-5-carboxylic acid (1-carbamoyl-3-methyl-butyl)-amide], EC50 748 nM. Against it:
- CCC(CC)n1c(CC2CCCC2)nc2cc(C(=O)N[C@H](CO)[C@@H](C)CC)ccc21 [Example 180, 2-Cyclopentylmethyl-1-(1-ethyl-propyl)-1H-benzoimidazole-5-carboxylic acid ((1S,2S)-1-hydroxymethyl-2-methyl-butyl)-amide] — 8.2-fold higher, 6170 nM
- CCC(CC)n1c(Cc2cccs2)nc2cc(C(=O)N[C@H](CCC(=O)O)C(C)C)ccc21 [Example 162, (R)-4-{[1-(1-Ethyl-propyl)-2-thiophen-2-ylmethyl-1H-benzoimidazole-5-carbonyl]-amino}-5-methyl-hexanoic acid] — within 1.5-fold, 1100 nM
- CCC(CC)n1c(Cc2cccs2)nc2cc(C(=O)N[C@@H](CC(C)C)C(=O)NCCN3CCCCC3)ccc21 [Example 233, 1-(1-Ethyl-propyl)-2-thiophen-2-ylmethyl-1H-benzoimidazole-5-carboxylic acid [(S)-3-methyl-1-(2-piperidin-1-yl-ethylcarbamoyl)-butyl]-amide] — 1.9-fold lower, 394 nM
- CCC(CC)n1c(Cc2cccs2)nc2cc(C(=O)N[C@H](CO)[C@@H](C)CC)ccc21 [Example 194, 1-(1-Ethyl-propyl)-2-thiophen-2-ylmethyl-1H-benzoimidazole-5-carboxylic acid ((1S,2S)-1-hydroxymethyl-2-methyl-butyl)-amide] — within 1.5-fold, 960 nM
- CCC1CCCCC1n1c(Cc2cccs2)nc2cc(C(=O)N[C@@H](CC(C)C)C(=O)O)ccc21 (stereo partly drawn) [Example 93, (S)-2-{[1-(2-Ethyl-cyclohexyl)-2-thiophen-2-ylmethyl-1H-benzoimidazole-5-carbonyl]-amino}-4-methyl-pentanoic acid] — 2.6-fold lower, 291 nM
- CCC(CC)n1c(Cc2cccs2)nc2cc(C(=O)N[C@@H](CC(C)C)C(=O)NC3CCN(c4ccccn4)CC3)ccc21 [Example 293, 1-(1-Ethyl-propyl)-2-thiophen-2-ylmethyl-1H-benzoimidazole-5-carboxylic acid [(S)-3-methyl-1-(3,4,5,6-tetrahydro-2H-[1,2′]bipyridinyl-4-ylcarbamoyl)-butyl]-amide] — 3.5-fold higher, 2640 nM
- CCC(CC)n1c(Cc2cccs2)nc2cc(C(=O)N[C@@H](CC(C)C)C(=O)NCC(C)(C)OC)ccc21 [Example 394, 1-(1-Ethyl-propyl)-2-thiophen-2-ylmethyl-1H-benzoimidazole-5-carboxylic acid [(S)-1-(2-methoxy-2-methyl-propylcarbamoyl)-3-methyl-butyl]-amide] — 3.1-fold higher, 2330 nM
- CCC(CC)n1c(Cc2cccs2)nc2cc(C(=O)N[C@@H](CC(C)C)C(=O)N3CCN(C4CCCC4)CC3)ccc21 [Example 321, 1-(1-Ethyl-propyl)-2-thiophen-2-ylmethyl-1H-benzoimidazole-5-carboxylic acid [(S)-1-(4-cyclopentyl-piperazine-1-carbonyl)-3-methyl-butyl]-amide] — 2-fold higher, 1520 nM
- CCC(CC)n1c(Cc2cccs2)nc2cc(C(=O)NC(CC(C)C)C(C)(C)C(=O)O)ccc21 (single isomer, unassigned) [Example 465] — within 1.5-fold, 948 nM
- CC(C)C[C@H](NC(=O)c1ccc2c(c1)nc(Cc1cccs1)n2C1CCCCC1C(F)(F)F)C(=O)O (stereo partly drawn) [Example 87, (S)-4-Methyl-2-{[2-thiophen-2-ylmethyl-1-(2-trifluoromethyl-cyclohexyl)-1H-benzoimidazole-5-carbonyl]-amino}-pentanoic acid] — within 1.5-fold, 882 nM
- CCC(CC)n1c(Cc2cccs2)nc2cc(C(=O)NC(CC3CCC(C)(C)CC3)C(=O)O)ccc21 (stereo not shown) [Example 29, 3-(4,4-Dimethyl-cyclohexyl)-2-{[1-(1-ethyl-propyl)-2-thiophen-2-ylmethyl-1H-benzoimidazole-5-carbonyl]-amino}-propionic acid] — 7.6-fold higher, 5660 nM
- CCC(CC)n1c(Cc2cccs2)nc2cc(C(=O)NC3(C(=O)O)CCCCCC3)ccc21 [Example 1, 1-{[1-(1-Ethyl-propyl)-2-thiophen-2-ylmethyl-1H-benzoimidazole-5-carbonyl]-amino}-cycloheptanecarboxylic acid] — 2.1-fold lower, 359 nM
- CCC(CC)n1c(Cc2cccs2)nc2cc(C(=O)N[C@@H](CC(C)C)C(=O)NC3COC4(CCCCC4)C3)ccc21 (stereo partly drawn) [Example 397, 1-(1-Ethyl-propyl)-2-thiophen-2-ylmethyl-1H-benzoimidazole-5-carboxylic acid [(S)-3-methyl-1-(1-oxa-spiro[4.5]dec-3-ylcarbamoyl)-butyl]-amide] — 12-fold higher, 8740 nM
- CCC(CC)n1c(Cc2cccs2)nc2cc(C(=O)N[C@@H](CC3CCCCC3)C(N)=O)ccc21 [Example 173, 1-(1-Ethyl-propyl)-2-thiophen-2-ylmethyl-1H-benzoimidazole-5-carboxylic acid ((S)-1-carbamoyl-2-cyclohexyl-ethyl)-amide] — 9-fold higher, 6700 nM
- CCCCN1CCC(CNC(=O)[C@H](CC(C)C)NC(=O)c2ccc3c(c2)nc(Cc2cccs2)n3C(CC)CC)CC1 [Example 331, 1-(1-Ethyl-propyl)-2-thiophen-2-ylmethyl-1H-benzoimidazole-5-carboxylic acid {(S)-1-[(1-butyl-piperidin-4-ylmethyl)-carbamoyl]-3-methyl-butyl}-amide] — 2.8-fold lower, 267 nM
- CCC(C)Cn1c(CC2CCCC2)nc2cc(C(=O)N[C@@H](CC(C)C)C(=O)O)ccc21 (stereo partly drawn) [Example 109, (S)-2-{[2-Cyclopentylmethyl-1-(2-methyl-butyl)-1H-benzoimidazole-5-carbonyl]-amino}-4-methyl-pentanoic acid] — 5.2-fold higher, 3860 nM
- CCCC1CCN(CCCNC(=O)[C@H](CC(C)C)NC(=O)c2ccc3c(c2)nc(Cc2cccs2)n3C(CC)CC)CC1 [Example 354, 1-(1-Ethyl-propyl)-2-thiophen-2-ylmethyl-1H-benzoimidazole-5-carboxylic acid {(S)-3-methyl-1-[3-(4-propyl-piperidin-1-yl)-propylcarbamoyl]-butyl}-amide] — within 1.5-fold, 998 nM
- CCC(CC)n1c(Cc2cccs2)nc2cc(C(=O)N[C@@H](CC(C)C)C(=O)NCCCOCC3CCCO3)ccc21 (stereo partly drawn) [Example 388, 1-(1-Ethyl-propyl)-2-thiophen-2-ylmethyl-1H-benzoimidazole-5-carboxylic acid {(S)-3-methyl-1-[3-(tetrahydro-furan-2-ylmethoxy)-propylcarbamoyl]-butyl}-amide] — 2.1-fold higher, 1590 nM
- CCC(CC)n1c(Cc2cccs2)nc2cc(C(=O)NC(CCC(F)(F)F)C(=O)O)ccc21 (stereo not shown) [Example 26, 2-{[1-(1-Ethyl-propyl)-2-thiophen-2-ylmethyl-1H-benzoimidazole-5-carbonyl]-amino}-5,5,5-trifluoro-pentanoic acid] — 7.1-fold higher, 5300 nM
- CCC(CC)n1c(Cc2cccs2)nc2cc(C(=O)N[C@@H](CC(C)C)[C@@H](O)C(=O)O)ccc21 [Example 67, (2R,3S)-3-{[1-(1-Ethyl-propyl)-2-thiophen-2-ylmethyl-1H-benzoimidazole-5-carbonyl]-amino}-2-hydroxy-5-methyl-hexanoic acid] — 9.5-fold lower, 79 nM
